# Square brackets hold non-standard residues; d marks the D form. Peptide text beside a SMILES is read from it. Cya = N[C@@H](CS(=O)(=O)O)C(=O)O
# Tests used:
# [1] = tested on: study eye of subjects with intermediate non-exudative AMD; test: Lanthony D-15 color vision test (Total Error Score Hue Style) in Dry AMD study; format: in vivo, human; design: Color vision Total Error Score Hue Style, mean / Color vision Total Error Score Hue Style, median / Color vision Total Error Score Hue Style change, median: scale not given here
# Protocol: Numerous study assessments were conducted at various time points throughout the study. Included among these study assessments were; refractive eye examinations, determinations of BCVA AND low-luminance BCVA, Lanthony D-15 color vision test, measurement of intraocular pressure (IOP), Indirect ophthalmoscopy/dilated fundus examinations and spectral-domain optical coherence tomography (SD-OCT). Also, blood and saliva samples were obtained from each subject for genetic analysis. The above-listed study assessments were performed at the time points indicated in Table 1, below: The results of color vision testing of the study subjects are summarized in Table 5, below.
# [2] = tested on: primary mouse retinal neuron cells; test: Trypan blue viability of primary mouse retinal neuron cells exposed to kainic acid; format: cell-based, CD1 mice; settings: 1.0 mg/mL risuteganib alone
# Protocol: (§1) Purpose: Investigate neuroprotective properties of risuteganib in primary mouse retinal neuron cells exposed to kainic acid, a neuroexcitatory compound that activates glutamate receptors, resulting in overstimulation and cell death.
# Methods: Fresh retina were collected from CD1 mice and then mechanically dissociated with sterile Pasteur pipette. Cell suspensions were then dispensed into petri dish and incubated for 6 hours. Cells were then exposed to the experimental conditions: (1) untreated control, (2) 1.0 mg/mL risuteganib, (3) 500 μM kainic acid (KA), and (4) 1.0 mg/mL risuteganib for 24 hours before 500 μM kainic acid exposure. 8 hours after kainic acid treatment, dead and live cell numbers were measured using Trypan blue exclusion assay on a hemocytometer.
# [3] = tested on: human retinal Müller cells (MIO-M1); test: Mitochondrial membrane potential (JC-1) in human Müller cells (MIO-M1); format: cell-based; settings: 1× of 1 mg/50 μL, 24 hours; normalized to untreated control as 100%
# Protocol: Purpose: To determine the effects of risuteganib on the mitochondrial membrane potential (ΔΨm) in cultured human retinal Müller cells (MIO-M1). Loss of ΔΨm is a marker for early cell death.
# Methods: The immortalized human retinal Müller cell line (MIO-M1) was obtained from the Department of Cell Biology of the University College, London. Cells were cultured in Dulbecco's Modified Eagle's Medium (DMEM) and plated in 24-well plates for 24 hours before treatment with 1× concentration of 1 mg/50 μL risuteganib, ranibizumab, bevacizumab, or aflibercept. Dosage was based on clinical dose of each compound. The experiments were repeated 3 times with 6 replicates each. After 24 hours drug treatment, the ΔΨm was measured using the JC-1 kit, a cationic dye that fluoresces red within the mitochondria of healthy, live cells. In the stressed or apoptotic cells, the mitochondrial membrane potential collapses and the cationic dye fluoresces green. First, cells were rinsed with fresh media and then incubated with the JC-1 reagent for 15 minutes at 37 degrees C. The dyes were then removed, and phosphate buffered saline was added to each well. The Red fluorescence (live cells) was read at EX 550 nm and EM 600 nm. The Green fluorescence (apoptotic cells) was read at EX 483 nm and EM 535 nm. The changes in ΔΨm were calculated by the ratio of red to green fluorescence. […]
# primary human RPE cells = test: Mitochondrial membrane potential (JC-1) in primary human RPE cells exposed to hydroquinone; format: cell-based; settings: 0.4 mM risuteganib co-treatment with HQ 125-180 uM
# Protocol: Purpose: To determine if risuteganib protects against hydroquinone (HQ)-mediated cell injury, elevated ROS level and reduced mitochondrial membrane potential (Δψm) in cultured human RPE cells. Elevated ROS levels increase oxidative stress in the cells, leading to reduced cell health and cell death. Loss of ΔΨm is a marker for early cell death. Methods: Primary human RPE cells were seeded on collagen-coated 96-well plates in triplicates at 8K, 10K and […] cells/well, respectively. Cells reached 80% to 100% confluence 24 hours after plating, and confluent cells were then grown for an additional 4 or 5 days until growth was density arrested. On day 6 after plating, cells in the plate upper half were loaded with 20 μM CM-H2DCFDA (measures ROS level) and in the plate lower half with 10 μM JC-1 (measures Δψm) for 30 minutes at 37° C. […] For the ROS and Δψm assays, a fluorescence plate reader was used to quantify ROS production (490-nm excitation, 522-nm emission), and green monomer of JC-1 (490-nm excitation, 522-nm emission) and red JC-1 aggregate (535-nm excitation, 590-nm emission), respectively. […] The WST reagent was quantified with a plate reader at 440 nm and a reference wavelength at 690 nm. Data were normalized to untreated control as 100% and were expressed as the mean±SD.
# [4] = tested on: primary mouse Müller cells; test: Trypan blue viability of primary mouse Müller cells exposed to kainic acid; format: cell-based, CD1 mice; settings: 1.0 mg/mL risuteganib alone
# Excerpt: as §1, with “Müller” for “retinal neuron”, “death. Retinal Müller cells support normal functions of neurons and their dysregulation can leads to loss of homeostasis and neuronal cell death.” for “death.”
# Methods: Fresh retina were collected from CD1 mice and then mechanically dissociated with sterile Pasteur pipette into small aggregates and seeded into 35 mm culture dishes. All cultures were first left unchanged for 5-6 days and then replenished every 3-4 days. When the cell growth had reached around 80% confluency, retinal aggregates and debris were removed by media washes to form a purified cell monolayer. Cells were then exposed to the experimental conditions: (1) untreated control, (2) 1.0 mg/mL risuteganib, (3) 500 μM kainic acid (KA), and (4) 1.0 mg/mL risuteganib for 24 hours before 500 μM kainic acid exposure. 48 hours after kainic acid treatment, dead and live cell numbers were measured using Trypan blue exclusion assay on a hemocytometer.
# [5] = Week 12, Group 2 (1 mg IVT day 1 + wk 16)
# [6] = Week 32, Group 1 crossover (sham day 1, 1 mg IVT wk 16)
# [7] = Week 32, Group 2 (1 mg IVT day 1 + wk 16)
smiles,measurement,setting,value
"C[C@@H](O)[C@H](NC(=O)[C@H](CS(=O)(=O)O)NC(=O)CNC(=O)[C@H](CCCNC(=N)N)NC(=O)CN)C(=O)N1CCC[C@H]1C(=O)O [risuteganib, Glycyl-L-arginylglycyl-3-sulfo-L-alanyl-L-threonyl-L-proline] (H-GRG[Cya]TP-OH)","Color vision Total Error Score Hue Style, mean",[1]; [5],43.38
same,"Color vision Total Error Score Hue Style, median",[1]; [5],39.67
same,"Color vision Total Error Score Hue Style change, median","[1]; Week 12 change from screening, Group 2 (1 mg IVT day 1 + wk 16)",2.67
same,"Color vision Total Error Score Hue Style change, mean","[1]; Week 12 change from screening, Group 2 (1 mg IVT day 1 + wk 16), increase = worsening",2.41
same,"Color vision Total Error Score Hue Style, mean",[1]; [6],48.76
same,"Color vision Total Error Score Hue Style, median",[1]; [6],42.00
same,"Color vision Total Error Score Hue Style, mean",[1]; [7],39.88
same,"Color vision Total Error Score Hue Style, median",[1]; [7],24.09
same,"Color vision Total Error Score Hue Style change, median","[1]; Week 32 change from screening, Group 2 (1 mg IVT day 1 + wk 16)",−3.17
same,"Color vision Total Error Score Hue Style change, median","[1]; Week 32 change, Group 1 crossover (sham day 1, 1 mg IVT wk 16)",1.34
same,Decrease (improvement) in color vision total error score,[1]; risuteganib responders at Week 32 (FIG. 3),13.03
same,"Change in cell viability, treatment alone",[2],did not induce detectable change in cell viability
same,"Mitochondrial membrane potential (ΔΨm, red/green JC-1 ratio)",[3],109.3±4.91
same,Improvement of HQ-reduced Δψm,primary human RPE cells,16%
same,"Change in cell viability, treatment alone",[4],did not induce detectable change in cell viability
